Columns and labels:
[1] = target: T1, human sphingosine-1-phosphate receptor 1 (S1P1) (Homo sapiens (Human), UniProt P21453); assay: Inhibition of cAMP production (HTRF cAMP HiRange), S1P1 CHO-K1 cells; type: cell-based; conditions: for Emax: CHO-K1, efficacy (SPAN) normalized to fingolimod, read-out: hS1P1 cAMP SPAN; for hS1P1 cAMP pEC50: inhibition of cAMP production, S1P1 CHO-K1 cells
In short: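 CHO-K1 cells stably co-expressing human S1P1 (C-terminal Prolink tag) and EA-β-arrestin2 were grown in AssayComplete Media 6 at 37° C. and 5% CO2, plated, and incubated overnight. Agonist-driven inhibition of intracellular cAMP was read by TR-FRET with the HTRF cAMP HiRange kit on a PheraStar reader. Potency is pEC50, and efficacy (SPAN) is normalized to fingolimod.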
Target sequence in this assay (P21453 whole entry, looked up): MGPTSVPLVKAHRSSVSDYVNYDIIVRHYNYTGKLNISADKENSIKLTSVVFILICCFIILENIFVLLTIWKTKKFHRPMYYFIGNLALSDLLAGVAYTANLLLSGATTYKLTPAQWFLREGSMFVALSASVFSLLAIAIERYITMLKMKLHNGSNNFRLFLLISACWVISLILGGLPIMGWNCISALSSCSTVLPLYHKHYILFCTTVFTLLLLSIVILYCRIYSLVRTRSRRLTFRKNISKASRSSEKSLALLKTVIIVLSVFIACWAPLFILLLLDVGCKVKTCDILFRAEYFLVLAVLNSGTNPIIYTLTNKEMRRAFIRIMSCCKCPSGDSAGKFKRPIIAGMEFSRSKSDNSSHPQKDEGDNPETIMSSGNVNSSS

[2] = target: T1, human sphingosine-1-phosphate receptor 1 (S1P1); assay: β-Arrestin2 recruitment assay (PathHunter), S1P1 CHO-K1 cells; type: cell-based; conditions: for Emax: CHO-K1, efficacy (SPAN) normalized to fingolimod, read-out: hS1P1 B-arrestin2 SPAN; for hS1P1 B-arrestin2 pEC50: β-arrestin2 recruitment, S1P1 CHO-K1 cells
In short: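 Enzyme-fragment complementation read-out: agonist-driven β-arrestin2 binding to ProLink-tagged human S1P1 in stable CHO-K1 cells restores β-galactosidase, measured 1 h at room temperature after a 60 min 37° C. compound incubation. Potency as pEC50, efficacy relative to fingolimod (SPAN).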
Target sequence in this assay (P21453 whole entry, looked up): as above
Target sequence in this assay (P32121 whole entry partner, looked up): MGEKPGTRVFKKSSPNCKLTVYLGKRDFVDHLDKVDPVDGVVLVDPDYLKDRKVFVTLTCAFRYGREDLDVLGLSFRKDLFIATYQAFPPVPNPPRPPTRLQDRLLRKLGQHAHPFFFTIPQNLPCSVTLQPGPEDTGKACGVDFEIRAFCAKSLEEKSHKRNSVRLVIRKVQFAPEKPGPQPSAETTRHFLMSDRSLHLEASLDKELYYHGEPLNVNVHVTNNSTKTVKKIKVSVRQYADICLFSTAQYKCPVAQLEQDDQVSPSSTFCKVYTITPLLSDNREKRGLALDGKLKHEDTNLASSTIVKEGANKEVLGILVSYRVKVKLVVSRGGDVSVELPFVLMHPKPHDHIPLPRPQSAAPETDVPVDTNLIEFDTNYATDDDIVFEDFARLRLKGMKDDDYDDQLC

COc1cc(C)c2nc(-c3ccc4c(c3)nnn4C(C)C)oc2c1 [Compound 436, 2-(1-isopropyl-1H-benzo[d][1,2,3]triazol-5-yl)-6-methoxy-4-methylbenzo[d]oxazole]
Emax [1]: > 75% | hS1P1 cAMP pEC50 [1]: >6.5 | Emax [2]: > 75% | hS1P1 B-arrestin2 pEC50 [2]: <5

Cc1ccc2oc(-c3ccc4c(c3)nnn4CC(C)C)nc2c1 [Compound 437, 2-(1-isobutyl-1H-benzo[d][1,2,3]triazol-5-yl)-5-methylbenzo[d]oxazole]
Emax [1]: > 75% | hS1P1 cAMP pEC50 [1]: >6.5 | Emax [2]: < 75% | hS1P1 B-arrestin2 pEC50 [2]: >5

CC(C)n1nnc2cc(-c3nc(-c4ccccc4N)co3)ccc21 [Compound 438, 2-{2-[1-(propan-2-yl)-1H-1,2,3-benzotriazol-5-yl]-1,3-oxazol-4-yl}aniline]
Emax [1]: > 75% | hS1P1 cAMP pEC50 [1]: >6.5 | Emax [2]: > 75% | hS1P1 B-arrestin2 pEC50 [2]: >5

Cc1ccncc1-c1noc(-c2ccc3c(c2)nnn3C2CCOCC2)n1 [Compound 439, 5-[3-(4-methylpyridin-3-yl)-1,2,4-oxadiazol-5-yl]-1-(oxan-4-yl)-1H-1,2,3-benzotriazole]
Emax [1]: > 75% | hS1P1 cAMP pEC50 [1]: <6.5 | Emax [2]: > 75% | hS1P1 B-arrestin2 pEC50 [2]: <5

N#Cc1cc(-c2nc(-c3ccc4sc(N)nc4c3)no2)ccc1NCC1CC1 [Compound 440, 5-(3-(2-aminobenzo[d]thiazol-5-yl)-1,2,4-oxadiazol-5-yl)-2-((cyclopropylmethyl)amino)benzonitrile]
Emax [1]: > 75% | hS1P1 cAMP pEC50 [1]: >6.5 | Emax [2]: > 75% | hS1P1 B-arrestin2 pEC50 [2]: >5

CC(C)Nc1ccc(-c2nc(-c3ccc4sc(N)nc4c3)no2)cc1C#N [Compound 441, 5-(3-(2-aminobenzo[d]thiazol-5-yl)-1,2,4-oxadiazol-5-yl)-2-(isopropylamino)benzonitrile]
Emax [1]: > 75% | hS1P1 cAMP pEC50 [1]: >6.5 | Emax [2]: > 75% | hS1P1 B-arrestin2 pEC50 [2]: >5

CCC1(CC)CC(=O)c2cc(-c3nc(-c4ccc5sc(N)nc5c4)no3)ccc2O1 [Compound 446, 6-(3-(2-aminobenzo[d]thiazol-5-yl)-1,2,4-oxadiazol-5-yl)-2,2-diethylchroman-4-one]
Emax [1]: < 75% | hS1P1 cAMP pEC50 [1]: <6.5 | Emax [2]: < 75% | hS1P1 B-arrestin2 pEC50 [2]: <5

Cc1cccc2oc(-c3ccc4c(c3)nnn4CC(C)C)nc12 [Compound 447, 2-(1-isobutyl-1H-benzo[d][1,2,3]triazol-5-yl)-4-methylbenzo[d]oxazole]
hS1P1 cAMP pEC50 [1]: >6.5 | hS1P1 B-arrestin2 pEC50 [2]: >5

Cc1ccc2nc(-c3ccc4c(c3)nnn4CC(C)C)oc2c1 [Compound 448, 2-(1-isobutyl-1H-benzo[d][1,2,3]triazol-5-yl)-6-methylbenzo[d]oxazole]
hS1P1 cAMP pEC50 [1]: <6.5 | hS1P1 B-arrestin2 pEC50 [2]: <5

Cc1cccc2nc(-c3ccc4c(c3)nnn4CC(C)C)oc12 [Compound 449, 2-(1-isobutyl-1H-benzo[d][1,2,3]triazol-5-yl)-7-methylbenzo[d]oxazole]
hS1P1 cAMP pEC50 [1]: <6.5 | hS1P1 B-arrestin2 pEC50 [2]: <5

COc1cccc2oc(-c3ccc4c(c3)nnn4CC(C)C)nc12 [Compound 450, 2-(1-isobutyl-1H-benzo[d][1,2,3]triazol-5-yl)-4-methoxybenzo[d]oxazole]
Emax [1]: > 75% | hS1P1 cAMP pEC50 [1]: >6.5 | Emax [2]: > 75% | hS1P1 B-arrestin2 pEC50 [2]: >5

COc1ccc2oc(-c3ccc4c(c3)nnn4CC(C)C)nc2c1 [Compound 451, 2-(1-isobutyl-1H-benzo[d][1,2,3]triazol-5-yl)-5-methoxybenzo[d]oxazole]
Emax [1]: < 75% | hS1P1 cAMP pEC50 [1]: >6.5 | Emax [2]: < 75% | hS1P1 B-arrestin2 pEC50 [2]: >5

COc1ccc2nc(-c3ccc4c(c3)nnn4CC(C)C)oc2c1 [Compound 452, 2-(1-isobutyl-1H-benzo[d][1,2,3]triazol-5-yl)-6-methoxybenzo[d]oxazole]
Emax [1]: > 75% | hS1P1 cAMP pEC50 [1]: <6.5 | Emax [2]: < 75% | hS1P1 B-arrestin2 pEC50 [2]: >5

CC(C)Cn1nnc2cc(-c3nc4c(Cl)cccc4o3)ccc21 [Compound 453, 4-chloro-2-(1-isobutyl-1H-benzo[d][1,2,3]triazol-5-yl)benzo[d]oxazole]
hS1P1 cAMP pEC50 [1]: >6.5 | hS1P1 B-arrestin2 pEC50 [2]: >5

CC(C)Cn1nnc2cc(-c3nc4cccc(Br)c4o3)ccc21 [Compound 454, 7-bromo-2-(1-isobutyl-1H-benzo[d][1,2,3]triazol-5-yl)benzo[d]oxazole]
hS1P1 cAMP pEC50 [1]: >6.5 | hS1P1 B-arrestin2 pEC50 [2]: >5

CC(C)n1nnc2cc(-c3nc4c(o3)CCc3sccc3-4)ccc21 [Compound 456, 4-[1-(propan-2-yl)-1H-1,2,3-benzotriazol-5-yl]-5-oxa-10-thia-3-azatricyclo[7.3.0.0^2,6]dodeca-1(9),2(6),3,11-tetraene]
Emax [1]: > 75% | hS1P1 cAMP pEC50 [1]: >6.5 | Emax [2]: > 75% | hS1P1 B-arrestin2 pEC50 [2]: <5

CC(C)n1nnc2cc(-c3nc4c(ccc5sccc54)o3)ccc21 [Compound 457, 4-[1-(propan-2-yl)-1H-1,2,3-benzotriazol-5-yl]-5-oxa-10-thia-3-azatricyclo[7.3.0.0^2,6]dodeca-1(9),2(6),3,7,11-pentaene]
Emax [1]: > 75% | hS1P1 cAMP pEC50 [1]: >6.5 | Emax [2]: > 75% | hS1P1 B-arrestin2 pEC50 [2]: <5

CC(=O)Nc1ccccc1-c1coc(-c2ccc3c(c2)nnn3C(C)C)n1 [Compound 458, N-(2-{2-[1-(propan-2-yl)-1H-1,2,3-benzotriazol-5-yl]-1,3-oxazol-4-yl}phenyl)acetamide]
Emax [1]: < 75% | hS1P1 cAMP pEC50 [1]: <6.5 | Emax [2]: < 75% | hS1P1 B-arrestin2 pEC50 [2]: <5

CC(C)n1nnc2cc(-c3nc(-c4cccs4)co3)ccc21 [Compound 459, 1-(propan-2-yl)-5-[4-(thiophen-2-yl)-1,3-oxazol-2-yl]-1H-1,2,3-benzotriazole]
Emax [1]: > 75% | hS1P1 cAMP pEC50 [1]: <6.5 | Emax [2]: > 75% | hS1P1 B-arrestin2 pEC50 [2]: <5

CC(C)(O)Cn1nnc2cc(-c3nc(-c4ccncc4C(F)(F)F)no3)ccc21 [Compound 460, 2-methyl-1-(5-{3-[3-(trifluoromethyl)pyridin-4-yl]-1,2,4-oxadiazol-5-yl}-1H-1,2,3-benzotriazol-1-yl)propan-2-ol]
Emax [1]: > 75% | hS1P1 cAMP pEC50 [1]: <6.5 | Emax [2]: > 75% | hS1P1 B-arrestin2 pEC50 [2]: <5

CC(C)Cn1nnc2cc(-c3nc4c(Br)cccc4o3)ccc21 [Compound 461, 4-bromo-2-(1-isobutyl-1H-benzo[d][1,2,3]triazol-5-yl)benzo[d]oxazole]
Emax [1]: > 75% | hS1P1 cAMP pEC50 [1]: <6.5 | Emax [2]: > 75% | hS1P1 B-arrestin2 pEC50 [2]: <5

CC(C)n1nnc2cc(-c3nc4c(o3)COc3ccccc3-4)ccc21 [Compound 462, 5-{4H-chromeno[4,3-d][1,3]oxazol-2-yl}-1-(propan-2-yl)-1H-1,2,3-benzotriazole]
Emax [1]: > 75% | hS1P1 cAMP pEC50 [1]: >6.5 | Emax [2]: > 75% | hS1P1 B-arrestin2 pEC50 [2]: <5

CCC1(CC)CC(=O)c2cc(-c3nc(-c4ccc[nH]4)no3)ccc2O1 [Compound 464, 6-(3-(1H-pyrrol-2-yl)-1,2,4-oxadiazol-5-yl)-2,2-diethylchroman-4-one]
hS1P1 cAMP pEC50 [1]: >6.5 | hS1P1 B-arrestin2 pEC50 [2]: <5

— patent US11912693B2, “Compounds for modulating S1P1 activity and methods of using the same” (TREVENA, INC., priority 2017, dated 2024)
